The values below come from publication PMC7440915, “Discovery of surrogate agonists for visceral fat Treg cells that modulate metabolic indices in vivo” (eLife, 2020).

This assay has as its system HFD-fed B6.CD45.1^+ mice. Nature of the assay: Anti-TNFα and Fat1562 immunization in HFD-fed mice with vTreg53 Treg transfer. The assay is classed as in vivo, mouse. To be noted: n ≥ 5, anti-TNFα 10 μg/g i.p. twice a week. From the text:
Figure 7. Immunization with Fat1562 following vTreg53 Treg transfer ameliorates HFD-induced insulin resistance. (A–F) Metabolic indices of mice treated as in Figure 6A (n ≥ 7). (A) Body weight. (B) Insulin tolerance test (ITT). (C) Area over curve for ITT analysis. (D) Glucose tolerance test (GTT). (E) Area under curve for GTT analysis. (F) Plasma insulin levels after 6 hr of fasting. Data shown are representative of at least two independent experiments. (G) Scheme of the anti-TNFα experiment. (H) Number of total Treg cells in VAT (n ≥ 5). (I) Number of CD11c^hi inflammatory macrophages in VAT (n ≥ 5). (J) ITT (n ≥ 5). (K) Area over curve for ITT analysis (n ≥ 5). Data are mean ± SD. Figure 7—figure supplement 1. Absolute blood glucose levels. ITT analysis of mice transferred with vTreg53 TCR-tg Tregs and immunized with adjuvant/Fat1562 or adjuvant alone. Data shown are representative of at least two independent experiments (n ≥ 5). [drawing 7]
12-week-old B6.CD45.1^+ mice were fed with HFD and injected intraperitoneally with 10 μg/g body weight anti-TNFα (XT3.11, BioXCell) or isotype control IgG (HRPN, BioXCell) twice a week for 6 weeks, transferred with 0.4 million Treg cells from pooled Spl/LNs of 6-8wk-old male CD45.2^+ Tg^+ Foxp3-GFP^KI/y mice. […] One week after the IFA/peptides injection, ITT (0.75unit/kg insulin) was performed and the composition of different immunocytes were determined.
For GTT, mice were fasted for 15 hr overnight, weighed, and tested for fasting blood-glucose concentrations. […] Blood-glucose levels were measured before and 20, 40, 60, 90, and 120 min after glucose injection. […] Blood-glucose levels were measured before and 20, 40, 60, 90, and 120 min after insulin injection, and were normalized to the blood-glucose levels before insulin injection. The area under the curve (for GTT) or area over the curve (for ITT) were calculated using GraphPad Prism 7.0.

Where no end group is shown, it is not given here.

On to TMYKNPRPMAATG [Fat1562], for which, for the setting “ITT, 0.75unit/kg insulin”, the “insulin sensitivity” value was “slightly improved insulin sensitivity”. For the setting “VAT”, the “number of CD11c^hi pro-inflammatory macrophages in VAT” value is recorded as “reduced the number of CD11c^hi pro-inflammatory macrophages” and the “number of VAT-Treg cells” value was “moderately increased the numbers of VAT-Treg cells”.
